Experimental data reported in patent US6511817B1, “Methods and device for in vitro detection and characterization of psychoactives using analysis of repetitive electrical activity in a neuronal sample” (Matsushita Electric Industrial Co., Ltd., priority 1999, dated 2003).
Entries after “also recorded” stand apart in the source; their conditions may differ.

Key:
Assay type in all cases: cell-based, Sprague-Dawley rat
hippocampal slice [1] = experiment: Effect of bath-applied drugs on carbachol-induced beta waves in hippocampal slices on a 64-electrode MED array, FFT analysis; conditions: for power within the 20 Hz band / shift in the peak: 10 μM Ampakine after carbachol
Text: (§1) The general procedures for the preparation of the Multi-Electrode Dish (Matsushita Electric Industrial Co. Ltd., Osaka, Japan: “the MED probe”) were described above. Procedures for the MED probe preparation are also described by Oka et al. […]. The device has an array of 64 planar microelectrodes, each having a size of 50×50 μm, arranged in an 8 by 8 pattern. Probes come with two types of interpolar distance, 150 μm (Panasonic: MED-P515AP) and 450 μm (Panasonic: MED-P545AP).
(§2) To provide sufficient adhesion of the neuronal sample slice to the MED surface, the surface of the MED probe was treated with 0.1% polyethylenimine (Sigma: P-3143) in 25 mM borate buffer, pH 8.4, for 8 hours at room temperature. The probe surface was rinsed 3 times with sterile distilled water. The probe (chamber) was then filled with DMEM/F-12 mixed medium, containing 10% fetal bovine serum (GIBCO: 16141-079) and 10% horse serum (GIBCO: 16050-122), for at least 1 hour at 37° C. DMEM/F-12 mixed medium is a 1:1 mixture of Dulbecco's Modified Eagle's Medium and Ham's F-12 (GIBCO: D/F-12 medium, 12400-024), supplemented with N2 supplement (GIBCO: 17502-014) and hydrocortisone (20 nM, Sigma, H0888).
(§3) A 17-24 day old Sprague-Dawley rat was sacrificed by decapitation after anesthesia using halothane (2-Bromo-2 chloro-1,1,1 -trifluoroethane, Sigma: B4388), and the whole brain was removed carefully. The brain was immediately soaked in ice-cold, oxygenated preparation buffer of the following composition (in mM): 124 NaCl, 26 NaHCO3, 10 glucose, 3 KCl, 1.25 NaH2PO4, 2 CaCl2, 2 MgSO4, for approximately 2 minutes. Appropriate portions of the brain were trimmed and placed on the ice-cold stage of a vibrating tissue slicer (Leica: VT-1000S). The stage was immediately filled with both oxygenated and frozen preparation buffers. The thickness of each tissue slice was 350 μm. Each slice was gently taken off the blade by a painting brush, trimmed, and immediately soaked in the oxygenated preparation buffer for 1 hour at room temperature. Then a slice was placed on the center of the MED probe. The slice was positioned to cover the 8×8 array. After positioning the slice, the MED probe was immediately placed in a box filled with 95% O^2 and 5% CO^2 and allowed to recover at 32° C. for 1 hour.
(§4) During electrophysiological recording, the slices on the MED probe were placed in a small CO2 incubator (Asahi Lifescience: model 4020) at 32° C. After recovery of the slice on the MED probe, the medium was replaced with DMEM/F-12 mixed medium without serum. The slices were on the interface, and contacted with a moisturized 95% O2 and 5% CO2 gas mixture. In this condition, the responses were recorded for more than 2 hours.
(§5) Drugs were purchased from RBI (diazepam, bicuculline, CNQX, 2-hydroxysaclofen) or Sigma (all other compounds). CX614 and CX691 were produced by Cortex Pharmaceuticals Inc. (Irvine, Calif.). All drugs were bath applied at known concentrations and were prepared daily from frozen aliquots.
(§6) Spontaneous and evoked field potentials at all 64 sites were recorded simultaneously with the multi-channel recording system (Matsushita Electric Industrial Co. Ltd, the “MED64 system”) at a 20 kHz sampling rate. In the case of the evoked response, one of the planar microelectrodes out of the 64 available was used for cathode of stimulating. Bipolar constant current pulses (10 to 50 μA, 0.1 msec) were produced by the data acquisition software through the isolator. The stimulating microelectrode was selected by the 64 switch-box. The measured field potentials were then subjected to analysis using the CSD analysis (Nicholson et al) discussed below.

hippocampal slice [2] = experiment: Carbachol induction of rhythmic activity in hippocampus (fields CA1 and CA3), MED array, FFT analysis; conditions: for group mean dominant CA1 frequency / group mean dominant CA3 frequency: mean ± s.d.
Text: as §1, §2, §3, §4, §5, §6

entorhinal cortex = experiment: Carbachol-induced 40 Hz rhythm in retrohippocampal cortex, MED broad array
Description: as §3, with “Then a slice was placed on the center of the MED probe. The slice was positioned to cover the 8×8 array. After positioning the slice, the MED probe was immediately placed in a box filled with 95% O^2 and 5% CO^2 and allowed to recover at 32° C. for 1 hour.” left out
During electrophysiological recording, the slices on the MED probe were placed in a small CO2 incubator (Asahi Lifescience: model 4020) at 32° C. […] In this condition, the responses were recorded for more than 2 hours.
Spontaneous and evoked field potentials at all 64 sites were recorded simultaneously with the multi-channel recording system (Matsushita Electric Industrial Co. Ltd, the “MED64 system”) at a 20 kHz sampling rate. […] The measured field potentials were then subjected to analysis using the CSD analysis (Nicholson et al) discussed below. […]

[3] = diazepam plus carbachol, FIG. 13C

For `N#Cc1cc2[nH]c(=O)c(=O)[nH]c2cc1[N+](=O)[O-]` [CNQX], the “amplitude of carbachol-induced waves” value (hippocampal slice [1]; 20 μM) was “significantly diminished and/or eliminated”, the “effect on carbachol-induced high frequency rhythms” value (hippocampal slice [1]; 20 μM) was “greatly reduced” and the “power of carbachol-induced waves” value (hippocampal slice [1]; 20 μM) was “significant decrease”. For the same compound, the “synchronized activity in carbachol-treated sample” value (from here on “synchronized activity”) (hippocampal slice [1]; 20 μM) was “very rapid loss”.

With `O=C1c2cc3c(cc2OC2CCCN12)OCCO3` (centres unmarked) [CX614] the “power within the 20 Hz band” value (hippocampal slice [1]) was “significant increase” and the “shift in the peak” value (hippocampal slice [1]) was 10 Hz.

With `O=C(c1ccc2nonc2c1)N1CCCCC1` [CX691] the “power within the 20 Hz band” value (hippocampal slice [1]) was “significant increase” and the “shift in the peak” value (hippocampal slice [1]) was 10 Hz.

For `O=[N+]([O-])c1cc2nc(O)c(O)nc2cc1[N+](=O)[O-]` [DNQX], the “amplitude of carbachol-induced waves” value (hippocampal slice [1]; 20 μM) was “significantly diminished and/or eliminated”, the “power of carbachol-induced waves” value (hippocampal slice [1]; 20 μM) was “significant decrease” and the “synchronized activity” value (hippocampal slice [1]; 20 μM) was “very rapid loss”.

With `NS(=O)(=O)c1cccc2c1c([N+](=O)[O-])cc1nc(O)c(O)nc12` [NBQX] the “amplitude of carbachol-induced waves” value (hippocampal slice [1]; 10 μM) was “significantly diminished and/or eliminated”, the “power of carbachol-induced waves” value (hippocampal slice [1]; 10 μM) was “significant decrease” and the “synchronized activity” value (hippocampal slice [1]; 10 μM) was “very rapid loss”.

`CN1[C@@H]2CC[C@H]1C[C@@H](OC(=O)C(CO)c1ccccc1)C2` (some centres unmarked) [atropine] was tested, and the “effect on carbachol-induced high frequency rhythms” value (hippocampal slice [1]; 20 μM) was “completely eliminated”.

For `C[N+](C)(C)CCOC(N)=O` [carbachol, carbyl choline chloride], the “slices with rhythmic activity in CA1 and CA3 close to or within the beta band (10-30 Hz)” value (hippocampal slice [2]; after infusion of carbachol) was 41 of 55, the “group mean dominant CA1 frequency” value (hippocampal slice [2]; all slices) was 18.8±5.7 Hz and the “group mean dominant CA3 frequency” value (hippocampal slice [2]; all slices) was 16.4±5.7 Hz. For the same compound, the “group mean dominant CA1 frequency” value (hippocampal slice [2]; beta instances alone) was 19.2±4.8 Hz, the “group mean dominant CA3 frequency” value (hippocampal slice [2]; beta instances alone) was 17.3±4.2 Hz and the “peak of rhythmic activity in apical dendrites of hippocampal pyramidal cell fields” value (hippocampal slice [2]; carbachol 50 μM) was ~20 Hz. For the same compound, the “peak of the power spectrum” value (hippocampal slice [2]; example slice of FIG. 6B) was 20 Hz, the “frequency of oscillations in deep layers of the medial entorhinal cortex” value (entorhinal cortex; carbachol 50 μM) was 40 Hz and the “slices with forty Hz activity in the deep layers of the entorhinal cortex” value (entorhinal cortex; slices with appropriately positioned electrodes) was “each of the 15 slices”.

For `CN1C(=O)CN=C(c2ccccc2)c2cc(Cl)ccc21` [diazepam], the “amplitude of beta oscillations” value (hippocampal slice [1]; 3 μM diazepam, 20 μM carbachol) was “markedly enhanced”, the “change in the frequency of the waves” value (hippocampal slice [1]; 3 μM diazepam, 20 μM carbachol) was “not accompanied by a significant change; also recorded: without much shift” and the “increase in power within the 20 Hz band over carbachol alone” value (hippocampal slice [1]; [3]) was “nearly threefold increase”. The “peak added at a higher (gamma) frequency” value (hippocampal slice [1]; [3]) was “approximately 40 Hz”.

With picrotoxin the “effect on carbachol-induced beta waves” value (hippocampal slice [1]; 50 μM picrotoxin) was “marked reduction”.
